Experimental data: ChEMBL document CHEMBL4627277, “Catenulisporidins A and B, 16-membered macrolides of the hygrolidin family produced by the chemically underexplored actinobacterium Catenulispora species” (Bioorg Med Chem Lett, 2020)
Active and inactive are the calls of the source. The rule behind the calls is not given here.

Legend:
Type in all cases: functional, cell-based
HeLa [1] = test: Antiproliferative activity against human HeLa cells assessed as reduction in cell growth
HeLa [2] = test: Modulation of autophagy in human HeLa cells expressing mRFP-EGFP-LC3B assessed as induction of EGFP-LC3B puncta formation at 3 uM measured after 24 hrs by fluorescence microscopic analysis
HeLa [3] = test: Modulation of autophagy in human HeLa cells expressing mRFP-EGFP-LC3B assessed as induction of EGFP-LC3B puncta formation at 0.3 uM measured after 24 hrs by fluorescence microscopic analysis
HeLa [4] = test: Inhibition of autophagic flux in human HeLa cells expressing mRFP-EGFP-LC3B assessed as blockage of autophagosome-lysosome fusion by measuring accumulation of yellow puncta at 3 uM measured after 24 hrs by fluorescence microscopic analysis
HeLa [5] = test: Modulation of autophagy in human HeLa cells assessed as accumulation of p62 measured after 24 hrs by western blot analysis
HeLa [6] = test: Modulation of autophagy in human HeLa cells assessed as autophagosome maturation by measuring conversion of LC3B-I to LC3B-II measured after 24 hrs by western blot analysis
HeLa [7] = test: Induction of autophagy in human HeLa cells expressing mRFP-EGFP-LC3B assessed as accumulation of red and green fluorescence signals at 200 nM measured after 24 hrs by fluorescence microscopic analysis

`CC[C@H]1O[C@@](O)([C@@H](C)[C@H](O)[C@H](C)[C@H]2OC(=O)/C(C)=C/C(C)=C/[C@@H](C)[C@@H](O)[C@@H](C)C/C(C)=C/C=C/[C@@H]2OC)C[C@@H](OC(=O)/C=C/C(=O)O)[C@@H]1C` was tested, and the IC50 (HeLa [1]) was 11.8 µM, the Activity (HeLa [2]) was “Active” and the Activity (HeLa [3]) was “Active”. For the same compound, the inhibition (HeLa [4]) was “Active”, the Activity (HeLa [5]) was “Dose-dependent effect” and the Activity (HeLa [6]) was “Dose-dependent effect”.

In the case of `CCC(=O)N1CCN(c2ccc(-n3c(=O)ccc4cnc5ccc(-c6cnc7ccccc7c6)cc5c43)cc2C(F)(F)F)CC1`, the Activity (HeLa [7]) is reported as “Active”.

With `CC[C@H]1O[C@@](O)([C@@H](C)[C@H](O)[C@H](C)[C@H]2OC(=O)/C(C)=C/C(C)=C/[C@@H](C)[C@@H](O)[C@@H](C)C[C@@](C)(O)[C@@H](O)/C=C/[C@@H]2OC)C[C@@H](OC(=O)/C=C/C(=O)O)[C@@H]1C` the IC50 (HeLa [1]) was > 30 µM, the Activity (HeLa [2]) was “Active” and the inhibition (HeLa [4]) was “Active”. For the same compound, the Activity (HeLa [5]) was “Dose-dependent effect” and the Activity (HeLa [6]) was “Dose-dependent effect”.

`CO/C1=C\C(C)=C\[C@@H](C)[C@@H](O)[C@@H](C)C/C(C)=C/C=C/[C@H](OC)[C@@H]([C@@H](C)[C@@H](O)[C@H](C)[C@@]2(O)C[C@@H](O)[C@H](C)[C@@H](C(C)C)O2)OC1=O` [BAFILOMYCIN A1] was tested, and the IC50 (HeLa [1]) was 13 µM, the Activity (HeLa [2]) was “Active” and the Activity (HeLa [3]) was “Active”. For the same compound, the inhibition (HeLa [4]) was “Active” and the Activity (HeLa [5]) was “Dose-dependent effect”.

For `CC[C@H]1O[C@@](O)([C@@H](C)[C@H](O)[C@H](C)[C@H]2OC(=O)/C(C)=C/C(C)=C/[C@@H](C)[C@H]3O[C@](C)(C[C@@H]3C)[C@@H](O)/C=C/[C@@H]2OC)C[C@@H](OC(=O)/C=C/C(=O)O)[C@@H]1C`, the IC50 (HeLa [1]) was > 30 µM, the Activity (HeLa [2]) was “Active” and the inhibition (HeLa [4]) was “Active”. The Activity (HeLa [5]) was “Dose-dependent effect” and the Activity (HeLa [6]) was “Dose-dependent effect”.
